The values that follow come from ChEMBL document CHEMBL1141139 (J Med Chem, 2005).

Data set [1] deals with Neuronal acetylcholine receptor; alpha4/beta2 (Rattus norvegicus, UniProt P09483+P12390). The data set is described as follows: Displacement of [3H]-cytisine from Alpha4-beta2 Nicotinic acetylcholine receptor of rat brain homogenates. The format is tissue-based. On the technique in general: Displacement assays read how much labelled ligand stays bound in the presence of the test substance.

The target in data set [2] is T1, Neuronal acetylcholine receptor; alpha3/beta4 (Rattus norvegicus, UniProt P04757+P12392). The data set is described as follows: Displacement of [3H]epibatidine from Alpha3 Beta4 Nicotinic acetylcholine receptor of rat brain homogenates.
Data set [3] in a line: Lethal dose against rodents; Range = 1200-10e4. The following applies: rodentia. The format is toxicity.
Data set [4] is described as follows: Lethal dose against rodents; Range = 1200-10e4 nmol/kg. The format is toxicity. The following applies: rodentia.
The target of data set [5] is T1, Neuronal acetylcholine receptor; alpha3/beta4. Briefly: Effective concentration against alpha3-beta4 nicotinic acetylcholine receptor (nAChR) expressed in IMR32 cell. The format is cell-based, IMR-32.
Data set [6] in a line: Lethal dose against rodents; Range = 1.37e5 nmol/kg. The format is toxicity. The settings on record: rodentia.
For data set [7], the target named is T1, Neuronal acetylcholine receptor; alpha3/beta4. Briefly: Effective concentration against alpha3-beta4 Nicotinic acetylcholine receptor (nAChR). The format is protein-complex assay.
For data set [8] the target is unchanged. Briefly: Effective concentration against alpha3-beta4 nicotinic acetylcholine receptor (nAChR) expressed in Xenopus oocytes. The format is cell-based, Oocyte.
A short description of data set [9]: Lethal dose against rodents; Range = 12-120 nmol/kg. The format is toxicity. The following applies: rodentia, in vivo.
The nature of data set [10]: Lethal dose against rodents; Range = 7-67 nmol/kg. The format is toxicity. The following applies: rodentia, in vivo.
Data set [11] in a line: Lethal dose against rodents. The format is toxicity. The following applies: rodentia.
Data set [12] in a line: Lethal dose against rodents; Range = 1.38e7 nmol/kg. The format is toxicity. The following applies: rodentia.

The Ki is a dissociation constant, usually derived from enzyme kinetics or from competition with a known ligand. Read a low Ki as tighter binding. What is called LD50 is the dose expected to kill half of the subjects tested. By EC50 is commonly meant the concentration needed to bring the measured effect to its halfway point. Lower therefore signals an effect from little substance.

Chain of Neuronal acetylcholine receptor; alpha4/beta2 (P09483 whole entry): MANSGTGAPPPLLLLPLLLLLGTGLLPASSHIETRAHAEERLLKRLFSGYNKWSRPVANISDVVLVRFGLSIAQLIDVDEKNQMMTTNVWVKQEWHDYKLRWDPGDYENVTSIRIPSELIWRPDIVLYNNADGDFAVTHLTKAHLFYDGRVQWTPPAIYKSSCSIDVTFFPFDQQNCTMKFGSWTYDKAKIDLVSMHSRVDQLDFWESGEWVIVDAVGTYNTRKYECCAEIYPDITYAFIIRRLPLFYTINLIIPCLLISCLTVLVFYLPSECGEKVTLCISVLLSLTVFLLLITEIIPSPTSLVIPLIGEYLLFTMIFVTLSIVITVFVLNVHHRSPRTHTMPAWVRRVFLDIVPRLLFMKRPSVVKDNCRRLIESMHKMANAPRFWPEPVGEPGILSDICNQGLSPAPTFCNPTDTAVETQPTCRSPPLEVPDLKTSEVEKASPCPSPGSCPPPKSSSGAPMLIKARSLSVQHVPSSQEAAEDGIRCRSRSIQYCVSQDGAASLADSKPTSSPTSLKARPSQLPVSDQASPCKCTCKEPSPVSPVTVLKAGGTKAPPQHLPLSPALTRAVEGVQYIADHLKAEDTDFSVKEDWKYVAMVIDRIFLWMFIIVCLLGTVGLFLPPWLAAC
Chain of Neuronal acetylcholine receptor; alpha4/beta2 (P12390 whole entry): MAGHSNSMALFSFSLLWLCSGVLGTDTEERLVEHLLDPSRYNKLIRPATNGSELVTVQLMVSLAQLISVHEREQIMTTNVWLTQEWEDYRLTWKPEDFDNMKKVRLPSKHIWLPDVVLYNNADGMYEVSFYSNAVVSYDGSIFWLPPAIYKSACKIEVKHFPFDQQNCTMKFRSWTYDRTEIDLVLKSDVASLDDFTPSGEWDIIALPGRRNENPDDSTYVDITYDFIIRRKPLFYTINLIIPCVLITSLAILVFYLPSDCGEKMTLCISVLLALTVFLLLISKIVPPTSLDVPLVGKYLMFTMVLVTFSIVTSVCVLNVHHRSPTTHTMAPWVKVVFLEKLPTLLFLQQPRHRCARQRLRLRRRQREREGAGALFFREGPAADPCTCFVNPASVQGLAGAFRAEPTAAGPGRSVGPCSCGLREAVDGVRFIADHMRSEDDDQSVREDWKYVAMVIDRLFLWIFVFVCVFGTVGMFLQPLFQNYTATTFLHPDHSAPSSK
T1 sequence (P04757 whole entry): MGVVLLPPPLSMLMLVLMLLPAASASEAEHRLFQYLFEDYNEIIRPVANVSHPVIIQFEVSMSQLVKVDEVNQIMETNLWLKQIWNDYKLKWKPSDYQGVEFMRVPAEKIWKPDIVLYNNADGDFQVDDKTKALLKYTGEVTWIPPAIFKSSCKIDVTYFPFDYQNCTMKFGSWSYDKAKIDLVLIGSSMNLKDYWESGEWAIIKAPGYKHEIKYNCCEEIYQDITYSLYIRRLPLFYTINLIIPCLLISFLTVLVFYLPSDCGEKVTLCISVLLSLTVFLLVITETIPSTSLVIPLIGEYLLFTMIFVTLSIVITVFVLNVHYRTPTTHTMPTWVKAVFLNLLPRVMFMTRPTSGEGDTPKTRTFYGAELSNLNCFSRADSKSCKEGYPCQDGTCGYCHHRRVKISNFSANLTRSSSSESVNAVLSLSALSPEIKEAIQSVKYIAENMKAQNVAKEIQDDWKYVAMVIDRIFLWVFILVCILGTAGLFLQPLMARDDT
T1 sequence (P12392 whole entry): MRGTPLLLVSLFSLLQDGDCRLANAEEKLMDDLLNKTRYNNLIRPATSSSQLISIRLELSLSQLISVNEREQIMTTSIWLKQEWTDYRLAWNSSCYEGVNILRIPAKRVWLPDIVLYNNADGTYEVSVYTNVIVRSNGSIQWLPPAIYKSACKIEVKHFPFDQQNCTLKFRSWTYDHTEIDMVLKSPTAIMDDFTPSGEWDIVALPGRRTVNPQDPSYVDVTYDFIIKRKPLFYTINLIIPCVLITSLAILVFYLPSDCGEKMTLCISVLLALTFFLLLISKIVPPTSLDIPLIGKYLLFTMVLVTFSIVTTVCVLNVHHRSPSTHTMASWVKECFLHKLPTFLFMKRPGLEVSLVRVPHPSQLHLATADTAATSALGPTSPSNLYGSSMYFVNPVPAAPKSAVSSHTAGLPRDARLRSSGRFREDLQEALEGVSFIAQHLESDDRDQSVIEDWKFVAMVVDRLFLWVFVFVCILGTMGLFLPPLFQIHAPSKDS

In turn, `CN1CCCC1COc1ccc(Cl)nn1` (configuration not stated) came in with a Ki in data set [1] of 29 nM.
For `c1cncc(OCC2CCN2)c1` (configuration not stated), the results for the Ki in [2] and in data set [1] were 73.6 nM and 0.05 nM, respectively. In [3], this molecule yielded an LD50 of 100 µmol/kg.
In data set [1], `CN1CCCC1COc1cccnc1` (configuration not stated) had a Ki of 0.15 nM. In data set [4], this molecule yielded an LD50 of 100 µmol/kg. Besides, the response in [5] was half-maximal at 63000 nM (EC50).
Molecule `Cc1cc([C@@H]2CCCN2C)on1` [ABT-418] registered a Ki in data set [1] of 4 nM. Moreover, the LD50 in data set [6] amounted to 137 µmol/kg. Moreover, the response in data set [7] was half-maximal at 209000 nM (EC50).
In data set [1], `c1cncc(C2CC3CCC2N3)c1` (single isomer, unassigned; (-)) [DESCHLOROEPIBATIDINE] registered a Ki of 0.015 nM. In data set [8], this molecule had an EC50 of 250 nM. Also, the LD50 in data set [9] is 120 nmol/kg.
On to `CN1CCCC1COc1ccccn1` (configuration not stated), for which, in data set [1], the affinity corresponds to a Ki of 495 nM.
With `Clc1ccc(C2CC3CCC2N3)cn1` (configuration not stated) [EPIBATIDINE], the LD50 in data set [10] was 0.067 µmol/kg.
Turning to `CN1C2C=C(c3cccnc3)CC1CC2` (configuration not stated), in data set [11], the 50% lethal dose (LD50) turned out to be 0.25 µmol/kg.
Consider `c1cncc(C2CC3CCC2N3)c1` (single isomer, unassigned; (+)) [DESCHLOROEPIBATIDINE], for which the Ki in [1] was found to be 0.064 nM. Also, it took 510 nM to reach a half-maximal effect in [8] (EC50). The LD50 in data set [9] (read-out: LD50) was 120 nmol/kg.
`Clc1ccc([C@@H]2C[C@H]3CC[C@@H]2N3)cn1` [(+)-EPIBATIDINE] came in with an LD50 in data set [10] of 0.067 µmol/kg.
`CC(=O)OCC[N+](C)(C)C` [ACETYLCHOLINE]: the LD50 in [12] came to 13800 µmol/kg.
Take `CN1CCCC1COc1cnccn1` (configuration not stated): in [1], the Ki worked out at 16.3 nM.
